Data taken from PMC5309247, “A Role of Corazonin Receptor in Larval-Pupal Transition and Pupariation in the Oriental Fruit Fly Bactrocera dorsalis (Hendel) (Diptera: Tephritidae)” (Frontiers in Physiology, 2017).
Like-named read-outs stand apart in the source and are kept apart here.

Columns and labels:
DmCrzR = settings: ref Cazzamali et al., [2002], Park et al., [2002b], cited from earlier work
Description: (§1) The CrzR is a member of the GPCR family having seven TM domains. Since the first CrzR was identified in Drosophila, homologous receptors have been predicted in several genome databases (Sha et al., [2012]).

[1] = tested on: head-ligated B. dorsalis larvae; assay: Rescue of larval-pupal transition by peptide injection in head-ligated larvae; assay type: in vivo, Bactrocera dorsalis; settings: 0.3 pmol in 300 nL, 24 h post-injection; for rescue of pupariation in head-ligated larvae: in words
Method: The peptides of Crz and ETH of B. dorsalis were synthesized by Genescript (Nanjing, China), and the adipokinetic hormone (AKH) peptide of Bombyx mori (BmAKH) was a gift from Dr. Naiming Zhou (Zhejing University, China; Yang et al., [2013]). The amino acid (aa) sequences for Crz, ETH and AKH were added in Table 1. Plasmids were prepared using the MIDIprep kit as purchased from Qiagen (Valencia, CA). The reagents for cell culture and GPCR assay were purchased from Gibco cell culture at Life Technologies (Grand Island, NY), including fetal bovine serum, DMEM/F12 medium, fungizone, penicillin/streptomycin, and coelenterazine. The transfection reagent (TransIt) was purchased from Mirus Bio (Madison, WI).
The experimental setup with head-ligated 2-day-old 3rd-instar larvae was based on a previous study (Kim et al., [2004]). […] Upon head-ligation, a series of larvae was injected with Crz (0.3 pmol in 300 nL) or ETH (0.3 pmol in 300 nL). Upon injection larvae were kept on an artificial diet as described above, and we scored pupal development at 24 h post-injection. Per treatment, we used 20 larvae and three biological replicates were conducted. Typical phenotype effects were captured with a Leica M205A stereomicroscope with a camera (Leica Microsystems, Wetzlar, Germany).

BdCrzR = assay: Ca2+ mobilization luminescence (aequorin) assay in BdCrzR-expressing CHO cells; assay type: cell-based, Bactrocera dorsalis; settings: for Ca2+ response of BdCrzR-expressing CHO cells: CHO cells with aequorin and Gα16, 10-fold serial dilution of peptide
Method: The ORF for BdCrzR was inserted into the expression vector pcDNA3.1 (+). The correct clone of pcDNA3.1-BdCrzR was confirmed by sequencing (Invitrogen). Chinese Hamster Ovary (CHO) cells, supplemented with aequorin, and Gα16 subunit, were employed for the heterologous expression. The methods for the transfection and the Ca^2+ mobilization assay were performed as previously described (Jiang et al., [2014]). Briefly, cells were transfected with the pcDNA3.1(+)-BdCrzR using TransIT-LT1 transfection reagent (Mirus Bio). At 30 h after the transfection, the cells were collected and incubated with the coelenterazine (Invitrogen) for 2.5 h prior to the functional assay. The cells transfected with the empty pcDNA3.1 vector, were used as a negative control.
The luminescence assay was performed by measuring the intracellular Ca^2+ mobilization of the transfected CHO cells. A 10-fold serial dilution of the peptides (BdCrz and BmAKH) was applied to the cells. The luminescence caused by the intracellular calcium mobilization was measured within 20 s in every half-second intervals by a TriStar^2 LB 942 Multimode Reader (Berthold Technologies, Bad Wildbad, Germany; Jiang et al., [2013], [2014]). The lowest concentration of BdCrz ligand showing the maximum activation of the receptor, was selected for luminescence normalization. Based on that, a concentration-response curve was calculated for BdCrz by logistic fitting in Origin 8.6 (OriginLab Corporation, Northampton, MA). All experiments were conducted with three biological replicates.

Schistocerca americana = settings: ref Veenstra, [1991]; cited from earlier work
Description: (§2) Neuropeptides play a central role in regulating numerous vital physiological systems and behavioral events in diverse insects. The multiple functions of insect neuropeptides make them a prime practical potential target in the development of novel insect control agents (Boonen et al., [2009]).

Bombyx mori larvae = settings: injection into larvae; ref Tanaka et al., [2002]; cited from earlier work
Description: Crz is highly conserved with respect to spatial expression pattern, but no clear pattern of function has emerged.

Periplaneta americana = settings: ref Veenstra, [1989]; cited from earlier work
Description: as §2

MsCrzR = settings: ref Kim et al., [2004], cited from earlier work
Description: as §1

Substance: DmCrz: Corazonin of Drosophila melanogaster (NP_524350.1) (QTFQYSRGWTN; Corazonin; UniProt Q26377 20-30, looked up)
- EC50 (DmCrzR; DmCrzR-transfected CHO cells): 18 nM
- EC50 (DmCrzR; Xenopus oocyte cells): 1 nM

Substance: pAsn-Glu-Ser-Pro-Gly-Phe-Phe-Leu-Lys-Ile-Thr-Lys-Asn-Val-Pro-Arg-Leu-NH2 [BdETH, ecdysis-triggering hormone (ETH) of B. dorsalis, synthesized by Genescript, reference compound]
- rescue of pupariation in head-ligated larvae [1]: the same result was also observed

Substance: pCys-Glu-Leu-Thr-Phe-Ser-Pro-Asp-Thr-NH2 [BmAKH, adipokinetic hormone (AKH) peptide of Bombyx mori, reference compound]
- Ca2+ response of BdCrzR-expressing CHO cells (BdCrzR): no responses
- Ca2+ response of BdCrzR-expressing CHO cells (BdCrzR; listed as AKH): did not respond

Substance: pGln-Thr-Phe-Gln-Tyr-Ser-His-Gly-Trp-Thr-Asn-NH2 [[His^7]-Crz]
- dark-inducing activity (Schistocerca americana): dark-inducing peptide

Substance: pGln-Thr-Phe-Gln-Tyr-Ser-His-Gly-Trp-Thr-Ser-NH2 [BdCrz, mature corazonin of Bactrocera dorsalis, …amide, synthesized by Genescript]
- pupal development (Bombyx mori larvae): prolonged pupal development
- silk spinning rate (Bombyx mori larvae): reduced the silk spinning rate
- head-ligated larvae that made the transition from the larval to the pupal stage ([1]; 20 larvae per treatment, three biological replicates): 97%
- rescue of pupariation in head-ligated larvae [1]: could rescue the effects
- cardioacceleratory activity (Periplaneta americana): cardioacceleratory peptide
- EC50 (BdCrzR; CHO cells with aequorin and Gα16, transiently expressing BdCrzR, Ca2+ luminescence within 20 s, logistic fit, three independent measurements, each three replicates): 52.5 nM
- Ca2+ response of BdCrzR-expressing CHO cells (BdCrzR): concentration-dependent Ca^2+ responses
- EC50 (MsCrzR; CHO): 0.2 nM
- EC50 (MsCrzR; Xenopus oocyte-expression system): 0.075 nM
